# Measured values as given in US20150335055A1, “BEVERAGE PR[…] BASED ON PIMARICIN AND HEADSPACE GAS” (PEPSICO, INC., priority 2013, published 2015).
# Tests used:
# [1] = system: Zygosaccharomyces strains or Brettanomyces strains; test: 16 week spoilage trial in carbonated lemon-lime beverage (Sierra Mist, 3.6 volumes CO2, PET), Comparative Example 1; type: cell-based; conditions: for samples spoiled: period of the test (14 weeks, 98 days), 25° C.
# Procedure: […] This beverage is carbonated to 3.6 volumes CO2 in PET containers. Negative control containers received no inoculum. Positive control samples were inoculated with either Zygosaccharomyces strains (907, 28, Marion, HP, Mt. Dew, & SM Soiler) or Brettanomyces strains Dan, H2O2, Cherry 7-UP, 1601-1, and SY-05). […] All samples were then held at 25° C. for the duration of the study. […] 33% of the samples containing 15 ppm spoiled and 100% of samples containing 5 ppm pimaricin spoiled.
# [2] = Degradation kinetics of pimaricin in beverage without β-cyclodextrin, UV-visible peak ratio (Background Example 2); type: physicochemical; conditions: beverage pH 3.4; no β-cyclodextrin
# Source text: Such reactions are a consequence of the formation of reactive oxygen species (ROS) wherein oxygen merely serves as an intermediate in the transfer of electrons in REDOX type reactions which ultimately result in the degradation of more complex molecules such as pimaricin. In this regard, O2 behaves similar to a catalyst. Similar to many reactions involving catalyst, the amount of oxygen required to drive in such reactions is very small. In this regard, it is of interest to evaluate the stability of pimaricin in solution under differing conditions of oxygen tension. Clearly, it is also of interest to establish whether the formation of a complex between pimaricin and β-cyclodextrin serves to stabilize pimaricin from degradation by reaction with oxygen. […] Briefly, pimaricin yields a very distinctive UV-visible spectrum with 3 separate absorption maxima. As pimaricin degrades, the peak heights diminish. Degradation can be tracked through the diminishing peak height of any single peak maxima or through changes in relative peak height.
# Freshly prepared samples of pimaricin in water yield a spectrogram of 3 peak 1 (320 nm) peak 2 (304 nm) and peak 3 (291 nm). […] These differences are a reflection of the conjugated diene structure of pimaricin. As the integrity of the conjugate structure gives way to degradation, the relative peak heights are subject to change. […]
# [3] = Solubility of pimaricin in aqueous solution; type: physicochemical
# [4] = short exposures; cited from earlier work
# [5] = system: yeast which can spoil carbonated beverage; conditions: types of yeast which can spoil carbonated beverage; cited from earlier work
substance,measurement,setting,value
"(IR,3S,5R,7R,8E,12R,14E,16E,18E,20E,22R,24S,25R,26S)-{[3S,4S,5S,6R)-4-amino-3,5-dihydroxy-6-methyloxan-2-yl]oxy}-1,3,26 trihydroxy-12-methyl-10-oxo-6,11,28-trioxatricyclo[22.3.1.0^5,7]octacosa-8,14,16,18,20 pentaene-25-carboxylic acid [pimaricin]",Onset of Spoilage,"[1]; 5 ppm Pimaricin, week 0, day 0",0%
same,Onset of Spoilage,"[1]; 5 ppm Pimaricin, week 1, day 7",0%
same,Onset of Spoilage,"[1]; 5 ppm Pimaricin, week 2, day 14",0%
same,Onset of Spoilage,"[1]; 5 ppm Pimaricin, week 3, day 21",0%
same,Onset of Spoilage,"[1]; 5 ppm Pimaricin, week 4, day 28",0%
same,Onset of Spoilage,"[1]; 5 ppm Pimaricin, week 5, day 35",0%
same,Onset of Spoilage,"[1]; 5 ppm Pimaricin, week 6, day 42",0%
same,Onset of Spoilage,"[1]; 5 ppm Pimaricin, week 7, day 49",0%
same,Onset of Spoilage,"[1]; 5 ppm Pimaricin, week 8, day 56",0%
same,Onset of Spoilage,"[1]; 5 ppm Pimaricin, week 9, day 63",75%
same,Onset of Spoilage,"[1]; 5 ppm Pimaricin, week 10, day 70",75%
same,Onset of Spoilage,"[1]; 5 ppm Pimaricin, week 11, day 77",100%
same,Onset of Spoilage,"[1]; 5 ppm Pimaricin, week 12, day 84",100%
same,Onset of Spoilage,"[1]; 5 ppm Pimaricin, week 13, day 91",100%
same,Onset of Spoilage,"[1]; 5 ppm Pimaricin, week 14, day 98",100%
same,Onset of Spoilage,"[1]; 5 ppm Pimaricin, week 15, day 105",100%
same,Onset of Spoilage,"[1]; 5 ppm Pimaricin, week 16, day 112",100%
same,Onset of Spoilage,"[1]; 5 ppm Pimaricin, week 17, day 119",100%
same,Onset of Spoilage,"[1]; 5 ppm Pimaricin, week 18, day 126",100%
same,Onset of Spoilage,"[1]; 5 ppm Pimaricin, week 19, day 133",100%
same,Onset of Spoilage,"[1]; 5 ppm Pimaricin, week 20, day 140",100%
same,Onset of Spoilage,"[1]; 5 ppm Pimaricin, week 21, day 147",100%
same,Onset of Spoilage,"[1]; 5 ppm Pimaricin, week 22, day 154",100%
same,Onset of Spoilage,"[1]; 5 ppm Pimaricin, week 23, day 161",100%
same,Onset of Spoilage,"[1]; 5 ppm Pimaricin, week 24, day 168",100%
same,samples spoiled,[1]; 5 ppm pimaricin,100%
same,Onset of Spoilage,"[1]; 15 ppm Pimaricin, week 0, day 0",0%
same,Onset of Spoilage,"[1]; 15 ppm Pimaricin, week 1, day 7",0%
same,Onset of Spoilage,"[1]; 15 ppm Pimaricin, week 2, day 14",0%
same,Onset of Spoilage,"[1]; 15 ppm Pimaricin, week 3, day 21",0%
same,Onset of Spoilage,"[1]; 15 ppm Pimaricin, week 4, day 28",0%
same,Onset of Spoilage,"[1]; 15 ppm Pimaricin, week 5, day 35",0%
same,Onset of Spoilage,"[1]; 15 ppm Pimaricin, week 6, day 42",0%
same,Onset of Spoilage,"[1]; 15 ppm Pimaricin, week 7, day 49",0%
same,Onset of Spoilage,"[1]; 15 ppm Pimaricin, week 8, day 56",0%
same,Onset of Spoilage,"[1]; 15 ppm Pimaricin, week 9, day 63",0%
same,Onset of Spoilage,"[1]; 15 ppm Pimaricin, week 10, day 70",0%
same,Onset of Spoilage,"[1]; 15 ppm Pimaricin, week 11, day 77",33%
same,Onset of Spoilage,"[1]; 15 ppm Pimaricin, week 12, day 84",33%
same,Onset of Spoilage,"[1]; 15 ppm Pimaricin, week 13, day 91",33%
same,Onset of Spoilage,"[1]; 15 ppm Pimaricin, week 14, day 98",33%
same,Onset of Spoilage,"[1]; 15 ppm Pimaricin, week 15, day 105",33%
same,Onset of Spoilage,"[1]; 15 ppm Pimaricin, week 16, day 112",33%
same,Onset of Spoilage,"[1]; 15 ppm Pimaricin, week 17, day 119",33%
same,Onset of Spoilage,"[1]; 15 ppm Pimaricin, week 18, day 126",33%
same,Onset of Spoilage,"[1]; 15 ppm Pimaricin, week 19, day 133",33%
same,Onset of Spoilage,"[1]; 15 ppm Pimaricin, week 20, day 140",33%
same,Onset of Spoilage,"[1]; 15 ppm Pimaricin, week 21, day 147",33%
same,Onset of Spoilage,"[1]; 15 ppm Pimaricin, week 22, day 154",33%
same,Onset of Spoilage,"[1]; 15 ppm Pimaricin, week 23, day 161",33%
same,Onset of Spoilage,"[1]; 15 ppm Pimaricin, week 24, day 168",33%
same,samples spoiled,[1]; 15 ppm pimaricin,33%
same,Onset of Spoilage,"[1]; 25 ppm Pimaricin, week 0, day 0",0%
same,Onset of Spoilage,"[1]; 25 ppm Pimaricin, week 1, day 7",0%
same,Onset of Spoilage,"[1]; 25 ppm Pimaricin, week 2, day 14",0%
same,Onset of Spoilage,"[1]; 25 ppm Pimaricin, week 3, day 21",0%
same,Onset of Spoilage,"[1]; 25 ppm Pimaricin, week 4, day 28",0%
same,Onset of Spoilage,"[1]; 25 ppm Pimaricin, week 5, day 35",0%
same,Onset of Spoilage,"[1]; 25 ppm Pimaricin, week 6, day 42",0%
same,Onset of Spoilage,"[1]; 25 ppm Pimaricin, week 7, day 49",0%
same,Onset of Spoilage,"[1]; 25 ppm Pimaricin, week 8, day 56",0%
same,Onset of Spoilage,"[1]; 25 ppm Pimaricin, week 9, day 63",0%
same,Onset of Spoilage,"[1]; 25 ppm Pimaricin, week 10, day 70",0%
same,Onset of Spoilage,"[1]; 25 ppm Pimaricin, week 11, day 77",0%
same,Onset of Spoilage,"[1]; 25 ppm Pimaricin, week 12, day 84",0%
same,Onset of Spoilage,"[1]; 25 ppm Pimaricin, week 13, day 91",0%
same,Onset of Spoilage,"[1]; 25 ppm Pimaricin, week 14, day 98",0%
same,Onset of Spoilage,"[1]; 25 ppm Pimaricin, week 15, day 105",0%
same,Onset of Spoilage,"[1]; 25 ppm Pimaricin, week 16, day 112",0%
same,Onset of Spoilage,"[1]; 25 ppm Pimaricin, week 17, day 119",0%
same,Onset of Spoilage,"[1]; 25 ppm Pimaricin, week 18, day 126",0%
same,Onset of Spoilage,"[1]; 25 ppm Pimaricin, week 19, day 133",0%
same,Onset of Spoilage,"[1]; 25 ppm Pimaricin, week 20, day 140",0%
same,Onset of Spoilage,"[1]; 25 ppm Pimaricin, week 21, day 147",0%
same,Onset of Spoilage,"[1]; 25 ppm Pimaricin, week 22, day 154",0%
same,Onset of Spoilage,"[1]; 25 ppm Pimaricin, week 23, day 161",0%
same,Onset of Spoilage,"[1]; 25 ppm Pimaricin, week 24, day 168",0%
same,samples spoiled,[1]; equivalent of 30 mg pimaricin per ml,None
same,freedom from spoilage for duration of shelf-life,[1]; samples which contained 25 ppm pimaricin,remain free of spoilage
same,degradation in aqueous suspension,[2],degrades relatively quickly
same,normal limit of solubility,"[3]; beverage of acid pH, 25° C.",20-25 ppm
same,limit of solubility,[3]; high acid beverage,25 ppm
same,limit of solubility in aqueous solution,[3]; in the absence of β-cyclodextrin,20-25 mg 1^−1
same,temperature to which antimicrobial activity is stable,[4],≥ 120 ° F.
same,reported MIC values,[5],≥ 10 ppm
